Experimental findings from patent US20170007610A1, “NOVEL HETEROBICYCLIC COMPOUNDS AS KAPPA OPIOID AGONISTS” (priority 2014, published 2017) are described below.

Series [1] deals with T1, kappa opioid receptor (Mus musculus, UniProt P33534).
T1 construct: from tissue; host or cells: mouse vas deferens (male Swiss Albino mice)
Briefly: Ex-vivo KOR agonistic activity, electrically stimulated mouse vas deferens (MVD) model. As for the experimental part: a) Ex-Vivo KOR Agonistic Activity Testing, Using Electrically Stimulated Mouse Vas Deferens (MVD) Model:
Ex-vivo, the kappa opioid receptor agonistic activity of test compounds were tested on the electrically stimulated mouse vas deferens (MVD) preparations (Henderson et al., Br. J. Pharmacol., 46, 764-766, 1972; Portoghese et al., Life Sci. 36, 801-805, 1985) and IC50 were determined. In general, vas deferentia were taken from male Swiss Albino mice (30-40 g) and suspended in 8 ml organ baths, at 31° C., containing modified Krebs-Henseleit solution, without magnesium sulphate. Each vas deferens was equilibrated for 45 min at 2.6 mN tension and then stimulated at supramaximal voltage with five 1 ms pulses, at a frequency of 0.1 Hz. Concentration-response curves were determined by cumulative dosing. Inhibitory Concentration, 50% (IC50) values were determined by Sigmoidal dose-response (variable slope) equation, using Prizm v 6.01. The kappa opioid receptor specificity was determined by rightward shift in concentration-response curves in presence of 1 nM norbinaltorphimine (norBNI), a selective kappa opioid receptor antagonist.

Series [2] deals with T2, kappa opioid receptor (Homo sapiens, UniProt P41145).
T2 construct: grown in complete Ham's F-12 medium
Briefly: Invitro KOR agonistic activity, cAMP based functional assay. The class given is cell-based.

The test system of series [3] is ICR mice. Description: Acetic acid-induced writhing model. Format: in vivo. The note with it: acetic acid induced pain model, oral or i.v. administration, writhes for 15 min; for ED50: Mus musculus, 0.25 h, read-out: In-vivo ED50. How it is done:
(§1) All the animal experiments were carried out in ICR mice, bred in-house. Animals were housed in groups of 6 animals per cage, for a week, in order to habituate them to vivarium conditions (25±4° C., 60-65% relative humidity, 12:12 h light: dark cycle, with lights on at 7.30 am). All the animal experiments were carried out according to the internationally valid guidelines following approval by the ‘Zydus Research Center animal ethical committee’.
Following oral or i.v. administration of test compounds, mice are rested for 5 min before i.p. injection with 10 ml/kg of 0.6% v/v acetic acid in normal saline. […] A writhe is defined as a constriction of the abdominal area, often with extension of the hind legs. Percentage maximum possible effect (MPE) was calculated as below:
% MPE=100−[(No. of writhes in treated mice/No. of writhes in vehicle treated mice)]×100
ED50 dose is determined using GraphPad Prism.
A general note: Writhing tests count abdominal constrictions after an irritant is injected.

Series [4] concerns ICR mice. Briefly: Assessment of CNS effects (spontaneous locomotion, sedation, catalepsy), threshold dose. The note with it: lowest dose which shows pharmacodynamic effect (locomotion, sedation, catalepsy), oral or i.v. The class given is in vivo. How it is done: as §1
Assessment of CNS Effects of Test Compounds
Test compounds were dissolved in normal saline injected by oral or i.v., routes in ICR mice tail vein. […] The dose is scaled down or up if pharmacodynamic effect is present or absent respectively.

Read-outs that look alike come from different tables or passages of the source.

T1 sequence (P33534 whole entry): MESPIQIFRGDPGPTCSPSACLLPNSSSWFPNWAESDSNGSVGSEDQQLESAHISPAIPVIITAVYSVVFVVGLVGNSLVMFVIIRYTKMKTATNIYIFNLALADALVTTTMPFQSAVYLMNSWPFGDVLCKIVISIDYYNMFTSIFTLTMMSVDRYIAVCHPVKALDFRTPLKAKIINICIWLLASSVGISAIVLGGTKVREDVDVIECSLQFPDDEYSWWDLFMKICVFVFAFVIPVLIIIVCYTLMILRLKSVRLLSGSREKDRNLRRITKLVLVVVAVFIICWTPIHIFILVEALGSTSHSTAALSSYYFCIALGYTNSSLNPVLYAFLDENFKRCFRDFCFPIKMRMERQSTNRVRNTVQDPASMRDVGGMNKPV
T2 sequence (P41145 whole entry): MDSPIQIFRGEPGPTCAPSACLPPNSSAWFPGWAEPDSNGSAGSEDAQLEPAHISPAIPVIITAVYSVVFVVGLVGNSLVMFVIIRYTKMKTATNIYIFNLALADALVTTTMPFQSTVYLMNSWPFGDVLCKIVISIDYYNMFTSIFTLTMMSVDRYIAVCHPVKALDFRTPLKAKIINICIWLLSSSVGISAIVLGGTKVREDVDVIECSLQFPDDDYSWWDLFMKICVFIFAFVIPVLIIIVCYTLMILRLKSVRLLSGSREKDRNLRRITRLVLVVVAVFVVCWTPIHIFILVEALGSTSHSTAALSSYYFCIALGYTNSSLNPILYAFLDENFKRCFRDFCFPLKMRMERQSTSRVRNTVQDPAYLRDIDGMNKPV

Consider `CN(C(=O)COc1ccc2c(c1)CCCN2S(C)(=O)=O)[C@H](CN1CC[C@H](O)C1)c1ccccc1` [Compound 20, N-((S)-2-((S)-3-hydroxypyrrolidin-1-yl)-1-phenylethyl)-N-methyl-2-((1-(methylsulfonyl)-1,2,3,4-tetrahydroquinolin-6-yl)oxy)acetamide], for which the half-inhibitory concentration (IC50) (commonly the point on the concentration scale where inhibition reaches its midpoint) at kappa opioid receptor [1] is 1740 nM. The midpoint of the response on kappa opioid receptor [2], the EC50, lay at 2.12 nM. Further, in the series on ICR mice [3], the 50% effective dose (ED50) (in general, the dose that gives a 50% effect, or the effect in half of the subjects) came to 1.8 mg/kg. For the same compound, the “CNS TD” value with ICR mice [4] came to 30 mg/kg.
For the compound “N-((S)-2-((S)-3-hydroxypyrrolidin-1-yl)-1-phenylethyl)- N-methyl-2-((8-sulfonamido)-1,2,3,4-tetrahydroquinolin- 5-yloxy)acetamide [Compound 37]”, at kappa opioid receptor [1] (electrically stimulated mouse vas deferens preparation, cumulative dosing, read-out: Ex-vivo IC50), the IC50 was found to be 0.3 nM. The EC50 (commonly the concentration at which the effect is half-maximal) at kappa opioid receptor [2] (cAMP direct ELISA, forskolin 20 μM, agonist 20 minutes, read-out: In-vitro EC50) was 0.013 nM. For the same compound, the “In-vivo ED50” value in the series with ICR mice [3] came to 6.2 mg/kg.
`CN(C(=O)COc1ccc(NS(C)(=O)=O)c2c1CCCN2)[C@H](CN1CC[C@H](O)C1)c1ccccc1` [Compound 15, N-((S)-2-((S)-3-hydroxypyrrolidin-1-yl)-1-phenylethyl)-N-methyl-2-((8-(methylsulfonamido)-1,2,3,4-tetrahydroquinolin-5-yl)oxy)acetamide] gave a concentration for half-maximal inhibition (IC50) on kappa opioid receptor [1] of 0.9 nM. For the same compound, the response at kappa opioid receptor [2] was half-maximal at 0.003 nM (EC50). The 50% effective dose (ED50) in the series with ICR mice [3] is 0.92 mg/kg. Besides, the “CNS TD” value in the series on ICR mice [4] was determined as 10 mg/kg.
In the case of `CN1CCCc2c(OCC(=O)N(C)[C@H](CN3CC[C@H](O)C3)c3ccccc3)ccc(NS(C)(=O)=O)c21` [Compound 22, N-((S)-2-((S)-3-hydroxypyrrolidin-1-yl)-1-phenylethyl)-N-methyl-2-((1-methyl-8-(methylsulfonamido)-1,2,3,4-tetrahydroquinolin-5-yl)oxy)acetamide], the IC50 at kappa opioid receptor [1] amounted to 8.1 nM. The response on kappa opioid receptor [2] was half-maximal at 0.008 nM (EC50). Further, the ED50 with ICR mice [3] worked out at 2.5 mg/kg. Besides, the “CNS TD” value in the series on ICR mice [4] was 60 mg/kg.
Turning to `CN(C(=O)COc1ccc(NS(C)(=O)=O)c2ncccc12)[C@H](CN1CC[C@H](O)C1)c1cccc(N)c1` [Compound 43, N-((S)-1-(3-aminophenyl)-2-((S)-3-hydroxypyrrolidin-1-yl)ethyl)-N-methyl-2-((8-(methylsulfonamido)quinolin-5-yl)oxy) acetamide], the IC50 at kappa opioid receptor [1] was found to be 1.6 nM. The midpoint of the response on kappa opioid receptor [2], the EC50, lay at 0.006 nM. For the same compound, the median effective dose (ED50) in the series on ICR mice [3] worked out at 2.1 mg/kg. Besides, the “CNS TD” value with ICR mice [4] is 30 mg/kg.
Turning to `CN(C(=O)COc1ccc(NS(C)(=O)=O)c2cccnc12)[C@H](CN1CC[C@H](O)C1)c1ccccc1` [Compound 6, N-((S)-2-((S)-3-hydroxypyrrolidin-1-yl)-1-phenylethyl)-N-methyl-2-((5-methylsulfonamido)quinolin-8-yloxy)acetamide], the IC50 on kappa opioid receptor [1] amounted to 349 nM. For the same compound, the concentration giving a half-maximal response (EC50) on kappa opioid receptor [2] stood at 0.94 nM. The ED50 with ICR mice [3] amounted to 1.1 mg/kg. The “CNS TD” value in the series with ICR mice [4] was found to be 30 mg/kg.
On the same counts, the results for `CN(C(=O)COc1ccc(NS(=O)(=O)N(C)C)c2c1CCCN2)[C@H](CN1CC[C@H](O)C1)c1ccccc1` [Compound 32, 2-((8-((N,N-dimethylsulfamoyl)amino)-1,2,3,4-tetrahydroquinolin-5-yl)oxy)-N-((S)-2-((S)-3-hydroxypyrrolidin-1-yl)-1-phenylethyl)-N-methylacetamide] are 0.49 nM, 0.013 nM, 4.7 mg/kg and 100 mg/kg.
`CN(C(=O)COc1ccc2c(c1)OCO2)[C@H](CN1CC[C@H](O)C1)c1cccc(NS(C)(=O)=O)c1` [Compound 57, 2-(benzo[d][1,3]dioxol-5-yloxy)-N-((S)-2-((S)-3-hydroxypyrrolidin-1-yl)-1-(3-(methylsulfonamido)phenyl)ethyl)-N-methylacetamide] came in with an IC50 on kappa opioid receptor [1] of 27 nM. This compound had an EC50 on kappa opioid receptor [2] of 0.961 nM. Further, the ED50 in the series with ICR mice [3] was determined as 1.9 mg/kg. In addition, in the series with ICR mice [4], the “CNS TD” value came out at 60 mg/kg.
On kappa opioid receptor [1], `CN(C(=O)COc1ccc(NS(C)(=O)=O)c2ncccc12)[C@H](CN1CC[C@H](O)C1)c1cccc(O)c1` [Compound 48, N-((S)-1-(3-hydroxyphenyl)-2-((S)-3-hydroxypyrrolidin-1-yl)ethyl)-N-methyl-2-((8-(methylsulfonamido)quinolin-5-yl)oxy) acetamide] showed a half-inhibitory concentration (IC50) of 1.3 nM. Besides, the response on kappa opioid receptor [2] was half-maximal at 0.021 nM (EC50). For the same compound, the ED50 in the series with ICR mice [3] was determined as 3.1 mg/kg. Besides, the “CNS TD” value with ICR mice [4] was 30 mg/kg.
Compound `COCC(=O)Nc1ccc(OCC(=O)N(C)[C@H](CN2CC[C@H](O)C2)c2ccccc2)c2cccnc12` [Compound 35, N-((S)-2-((S)-3-hydroxypyrrolidin-1-yl)-1-phenylethyl)-2-((8-(2-methoxyacetamido)quinolin-5-yl)oxy)-N-methylacetamide] returned a half-maximal inhibitory concentration (IC50) at kappa opioid receptor [1] of 48 nM. Further, at kappa opioid receptor [2], the response was half-maximal at 0.06 nM (EC50).
On kappa opioid receptor [1], `CN(C(=O)COc1cc(NS(C)(=O)=O)c2ccccc2n1)[C@H](CN1CC[C@H](O)C1)c1ccccc1` [Compound 3, N-((S)-2-((S)-3-hydroxypyrrolidin-1-yl)-1-phenylethyl)-N-methyl-2-((4-methylsulfonamido)quinolin-2-yloxy)acetamide] came in with an IC50 of 414 nM. On kappa opioid receptor [2], this compound displayed an EC50 of 0.035 nM.
`CN(C(=O)COc1ccc(NS(C)(=O)=O)c2ncccc12)[C@H](CN1CC[C@H](O)C1)c1cccc(NS(C)(=O)=O)c1` [Compound 44]: the concentration for half-maximal inhibition (IC50) at kappa opioid receptor [1] turned out to be 5.4 nM. The compound also had an EC50 at kappa opioid receptor [2] of 0.036 nM. In the series with ICR mice [3], the ED50 was 2.3 mg/kg. Also, the “CNS TD” value with ICR mice [4] came out at 10 mg/kg.
With `CN(C(=O)COc1ncc(NS(C)(=O)=O)c2ccccc12)[C@H](CN1CC[C@H](O)C1)c1ccccc1` [Compound 10, N-((S)-2-((S)-3-hydroxypyrrolidin-1-yl)-1-phenylethyl)-N-methyl-2-((4-methylsulfonamido)isoquinolin-1-yloxy)acetamide], at kappa opioid receptor [1], the IC50 was 54 nM. Further, the EC50 on kappa opioid receptor [2] came out at 0.089 nM.
On kappa opioid receptor [1], `COc1cccc([C@@H](CN2CC[C@H](O)C2)N(C)C(=O)COc2ccc(NS(C)(=O)=O)c3ncccc23)c1` [Compound 49, N-((S)-2-((S)-3-hydroxypyrrolidin-1-yl)-1-(3-methoxyphenyl)ethyl)-N-methyl-2-((8-(methylsulfonamido)quinolin-5-yl)oxy) acetamide] displayed a concentration for half-maximal inhibition (IC50) of 1.9 nM. Further, the EC50 at kappa opioid receptor [2] is 0.032 nM.
Consider `CN(C(=O)COc1ccc(NS(C)(=O)=O)c2ncccc12)[C@H](CN1CC[C@H](O)C1)c1cccc(C(F)(F)F)c1` [Compound 53, N-((S)-2-((S)-3-hydroxypyrrolidin-1-yl)-1-(3-(trifluoromethyl)phenyl)ethyl)-N-methyl-2-((8-(methylsulfonamido)quinolin-5-yl)oxy) acetamide], for which, on kappa opioid receptor [1], the 50% inhibitory concentration (IC50) is 73 nM. On kappa opioid receptor [2], this compound registered a concentration for a half-maximal effect (EC50) of 0.68 nM.
